Assay results as given in patent EP4678638A1, “NEW E3 UBIQUITIN LIGASE LIGAND, PROTEIN DEGRADATION AGENT AND USE THEREOF” (priority 2023, dated 2024).
Where two headings read alike, the source gives them in different places.

How the values were obtained:
SR = assay: CCK-8 proliferation, SR; type: cell-based, Human; conditions: Homo sapiens; Table B10, compounds designed based on the IRAK4 inhibitors; SR cells; read-out: Inhibitory activity (IC50, nM) on tumor cell proliferation, SR
In short: (§1)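 Cells seeded, then after 24 h treated with 10 concentrations (top 10 µM, 5-fold serial dilution) for a line-specific time at 37°C, 5% CO2. Viability read by CCK-8; IC50 fitted from growth-inhibition curves.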

MV-4-11 = assay: CCK-8 proliferation, MV-4-11; type: cell-based, Human; conditions: Homo sapiens, MV4-11
Procedure: (§2) The tumor cells used herein were cultured in a cell culture medium listed in table A1 at 37°C in an incubator with 5% CO2. Prior to experimentation, all cell lines used were correctly identified by STR profiling, and tested negative for mycoplasma contamination using a mycoplasma detection kit through routine screenings. Table A1. Tumor cells and cell culture medium used in the present disclosure
(§3) IC50 values of the compounds of the present disclosure (including the compounds in Table 1, and compounds of examples) were measured using the Meilun Cell Counting Kit-8 kit from Dalian Meilun Biotech Co., Ltd. Assay details are as follows: tumor cells were seeded in a 96-well plate at a density listed in Table A2. After 24h, 100 µL of the inoculated cells were treated with 0.5µL of the compounds of the present disclosure (including the compounds in Tables 1 and 2, and compounds of examples) at 10 different successively decreasing concentrations (starting at the highest concentration of 10µM; 5-fold serial dilutions). After the cells were treated with the compounds of the present disclosure for a period of time, the cell viability detection reagent was added to the culture medium for cell viability assessment according to the instructions provided with the CCK-8 kit. […] The growth inhibition of the compounds of the present disclosure on cells was plotted by Prism Graphpad software, and the IC50 values of the compounds of the present disclosure were calculated therefrom. […] Seeding protocol and treatment time for tumor cells

H2228 = assay: CCK-8 proliferation, NCI-H2228 (H2228); type: cell-based; conditions: Homo sapiens, NCI-H2228; CCK-8; 96 hours; read-out: Inhibitory activity (IC50) on tumor cell proliferation, H2228
In short: as §1

H1975 = assay: CCK-8 proliferation, NCI-H1975 (H1975); type: cell-based, Human; conditions: Homo sapiens, NCI-H1975; CCK-8; 96 hours; read-out: Inhibitory activity (IC50) on tumor cell proliferation, H1975
In short: as §1

PC-9 = assay: CCK-8 proliferation, PC-9; type: cell-based, Human; conditions: Homo sapiens, PC-9; CCK-8; 96 hours; read-out: Inhibitory activity (IC50) on tumor cell proliferation, PC-9
Procedure: as §2, §3

CCRF-CEM = assay: CCK-8 proliferation, CCRF-CEM; type: cell-based, Human; conditions: Homo sapiens, CCRF-CEM; CCK-8; 96 hours; read-out: Inhibitory activity (IC50) on tumor cell proliferation, CCRF-CEM
Procedure: as §2, §3

[1] = CCK-8, 72 or 96 hours, read-out: Inhibitory activity (IC50) on tumor cell proliferation, MV-4-11

O=C1CCC(c2ccc(CN3CCC(n4cc(NC(=O)c5cnn6ccc(N7CCOCC7)nc56)c(C(F)F)n4)CC3)cc2)C(=O)N1 (centres unmarked) [GT-03813, N-(3-(difluoromethyl)-1-(1-(4-(2,6-dioxopiperidin-3-yl)benzyl)piperidin-4-yl)-1H-pyrazol-4-yl)-5-morpholinopyrazolo[1,5-a]pyrimidine-3-carboxamide]
IC50 (SR): 100 to 500 nM
IC50 (MV-4-11; Table B10, compounds designed based on the IRAK4 inhibitors, MV-4-11 cells, read-out: Inhibitory activity (IC50, nM) on tumor cell proliferation, MV-4-11): 100 to 500 nM

NC(=O)c1ncc(N2CCCCC2)nc1Nc1ccc(C2CCN(Cc3ccc(C4CCC(=O)NC4=O)c(F)c3)CC2)cc1 (centres unmarked) [GT-04786, 3-((4-(1-(4-(2,6-dioxopiperidin-3-yl)-3-fluorobenzyl)piperidin-4-yl)phenyl)amino)-5-(piperidin-1-yl)pyrazine-2-carboxamide]
IC50 (H2228): 100 to 500 nM
IC50 (H1975): 500 to 1000 nM
IC50 (PC-9): 500 to 1000 nM

NC(=O)c1ncc(N2CCCCC2)nc1Nc1ccc(C2CCN(Cc3ccc(N4CCC(=O)NC4=O)c(F)c3)CC2)cc1 [GT-04788, 3-((4-(1-(4-(2,4-dioxotetrahydropyrimidin-1(2H)-yl)-3-fluorobenzyl)piperidin-4-yl)phenyl)amino)-5-(piperidin-1-yl)pyrazine-2-carboxamide]
IC50 (H2228): 100 to 500 nM
IC50 (H1975): 500 to 1000 nM
IC50 (PC-9): 100 to 500 nM

NC(=O)c1ncc(N2CCCCC2)nc1Nc1ccc(C2CCN(Cc3ccc(N4CCC(=O)NC4=O)cc3)CC2)cc1 [GT-04789, 3-((4-(1-(4-(2,4-dioxotetrahydropyrimidin-1(2H)-yl)benzyl)piperidin-4-yl)phenyl)amino)-5-(piperidin-1-yl)pyrazine-2-carboxamide]
IC50 (H2228): 100 to 500 nM
IC50 (H1975): 500 to 1000 nM
IC50 (PC-9): 100 to 500 nM

CN1CCN([C@@H]2CCCN(c3cnc(C(N)=O)c(Nc4ccc(C5CCN(Cc6ccc(C7CCC(=O)NC7=O)cc6)CC5)cc4)n3)C2)C1=O (stereo partly drawn) [GT-04798, 3-((4-(1-(4-(2,6-dioxopiperidin-3-yl)benzyl)piperidin-4-yl)phenyl)amino)-5-((R)-3-(3-methyl-2-oxoimidazolidin-1-yl)piperidin-1-yl)pyrazine-2-carboxamide]
IC50 (H2228): 500 to 1000 nM
IC50 (H1975): 500 to 1000 nM
IC50 (PC-9): 100 to 500 nM

CN1CCN([C@@H]2CCCN(c3cnc(C(N)=O)c(Nc4ccc(C5CCN(Cc6ccc(C7CCC(=O)NC7=O)c(F)c6)CC5)cc4)n3)C2)C1=O (stereo partly drawn) [GT-04799, 3-((4-(1-(4-(2,6-dioxopiperidin-3-yl)-3-fluorobenzyl)piperidin-4-yl)phenyl)amino)-5-((R)-3-(3-methyl-2-oxoimidazolidin-1-yl)piperidin-1-yl)pyrazine-2-carboxamide]
IC50 (H2228): 500 to 1000 nM
IC50 (PC-9): 500 to 1000 nM

CN1CCN([C@@H]2CCCN(c3cnc(C(N)=O)c(Nc4ccc(C5CCN(Cc6ccc(N7CCC(=O)NC7=O)c(F)c6)CC5)cc4)n3)C2)C1=O [GT-04801, (R)-3-((4-(1-(4-(2,4-dioxotetrahydropyrimidin-1(2H)-yl)-3-fluorobenzyl)piperidin-4-yl)phenyl)amino)-5-(3-(3-methyl-2-oxoimidazolidin-1-yl)piperidin-1-yl)pyrazine-2-carboxamide]
IC50 (H2228): 100 to 500 nM
IC50 (H1975): 500 to 1000 nM
IC50 (PC-9): 100 to 500 nM

Nc1nc(Nc2ccc(S(=O)(=O)N3CCN(Cc4ccc(N5CCC(=O)NC5=O)cc4)CC3)cc2)nn1C(=O)c1c(F)cccc1F [GT-06751, 1-(4-((4-((4-((5-amino-1-(2,6-difluorobenzoyl)-1H-1,2,4-triazol-3-yl)amino)phenyl)sulfonyl)piperazin-1-yl)methyl)phenyl)dihydropyrimidine-2,4(1H,3H)-dione]
IC50 (MV-4-11; [1]): 500 to 1000 nM
IC50 (CCRF-CEM): 500 to 1000 nM

Nc1nc(Nc2ccc(S(=O)(=O)N3CCN(Cc4cccc(N5CCC(=O)NC5=O)c4)CC3)cc2)nn1C(=O)c1c(F)cccc1F [GT-06752, 1-(3-((4-((4-((5-amino-1-(2,6-difluorobenzoyl)-1H-1,2,4-triazol-3-yl)amino)phenyl)sulfonyl)piperazin-1-yl)methyl)phenyl)dihydropyrimidine-2,4(1H,3H)-dione]
IC50 (MV-4-11; [1]): 500 to 1000 nM

Nc1nc(Nc2ccc(S(=O)(=O)N3CCN(Cc4ccc(N5CCC(=O)NC5=O)cn4)CC3)cc2)nn1C(=O)c1c(F)cccc1F [GT-06753, 1-(6-((4-((4-((5-amino-1-(2,6-difluorobenzoyl)-1H-1,2,4-triazol-3-yl)amino)phenyl)sulfonyl)piperazin-1-yl)methyl)pyridin-3-yl)dihydropyrimidine-2,4(1H,3H)-dione]
IC50 (MV-4-11; [1]): 100 to 500 nM

Nc1nc(Nc2ccc(S(=O)(=O)N3CCN(Cc4ccc(N5CCC(=O)NC5=O)nc4)CC3)cc2)nn1C(=O)c1c(F)cccc1F [GT-06754, 1-(5-((4-((4-((5-amino-1-(2,6-difluorobenzoyl)-1H-1,2,4-triazol-3-yl)amino)phenyl)sulfonyl)piperazin-1-yl)methyl)pyridin-2-yl)dihydropyrimidine-2,4(1H,3H)-dione]
IC50 (MV-4-11; [1]): 500 to 1000 nM
IC50 (CCRF-CEM): 500 to 1000 nM

Cc1cc(S(=O)(=O)N2CCN(Cc3ccc(C4CCC(=O)NC4=O)cc3)CC2)ccc1Nc1ncc(Br)c(Nc2cccc(F)c2C(N)=O)n1 (centres unmarked) [GT-06830, 2-((5-bromo-2-((4-((4-(4-(2,6-dioxopiperidin-3-yl)benzyl)piperazin-1-yl)sulfonyl)-2-methylphenyl)amino)pyrimidin-4-yl)amino)-6-fluorobenzamide]
IC50 (MV-4-11; [1]): 100 to 500 nM

Cc1cc(S(=O)(=O)N2CCN(Cc3ccc(N4CCC(=O)NC4=O)cn3)CC2)ccc1Nc1ncc(Br)c(Nc2cccc(F)c2C(N)=O)n1 [GT-06833, 2-((5-bromo-2-((4-((4-((5-(2,4-dioxotetrahydropyrimidin-1(2H)-yl)pyridin-2-yl)methyl)piperazin-1-yl)sulfonyl)-2-methylphenyl)amino)pyrimidin-4-yl)amino)-6-fluorobenzamide]
IC50 (MV-4-11; [1]): 50 to 100 nM

Cc1ccsc1C(=O)n1nc(Nc2ccc(S(=O)(=O)N3CCN(Cc4ccc(C5CCC(=O)NC5=O)cc4)CC3)cc2)nc1N (centres unmarked) [GT-06854, 3-(4-((4-((4-((5-amino-1-(3-methylthiophene-2-carbonyl)-1H-1,2,4-triazol-3-yl)amino)phenyl)sulfonyl)piperazin-1-yl)methyl)phenyl)piperidine-2,6-dione]
IC50 (MV-4-11; [1]): 100 to 500 nM

Cc1ccsc1C(=O)n1nc(Nc2ccc(S(=O)(=O)N3CCN(Cc4ccc(C5CCC(=O)NC5=O)c(F)c4)CC3)cc2)nc1N (centres unmarked) [GT-06855, 3-(4-((4-((4-((5-amino-1-(3-methylthiophene-2-carbonyl)-1H-1,2,4-triazol-3-yl)amino)phenyl)sulfonyl)piperazin-1-yl)methyl)-2-fluorophenyl)piperidine-2,6-dione]
IC50 (MV-4-11; [1]): 500 to 1000 nM

Cc1ccsc1C(=O)n1nc(Nc2ccc(S(=O)(=O)N3CCN(Cc4ccc(N5CCC(=O)NC5=O)cc4F)CC3)cc2)nc1N [GT-06858, 1-(4-((4-((4-((5-amino-1-(3-methylthiophene-2-carbonyl)-1H-1,2,4-triazol-3-yl)amino)phenyl)sulfonyl)piperazin-1-yl)methyl)-3-fluorophenyl)dihydropyrimidine-2,4(1H,3H)-dione]
IC50 (MV-4-11; [1]): 100 to 500 nM

Cc1ccsc1C(=O)n1nc(Nc2ccc(S(=O)(=O)N3CCN(Cc4cccc(N5CCC(=O)NC5=O)c4)CC3)cc2)nc1N [GT-06859, 1-(3-((4-((4-((5-amino-1-(3-methylthiophene-2-carbonyl)-1H-1,2,4-triazol-3-yl)amino)phenyl)sulfonyl)piperazin-1-yl)methyl)phenyl)dihydropyrimidine-2,4(1H,3H)-dione]
IC50 (MV-4-11; [1]): 100 to 500 nM

Cc1ccsc1C(=O)n1nc(Nc2ccc(S(=O)(=O)N3CCN(Cc4ccc(N5CCC(=O)NC5=O)cn4)CC3)cc2)nc1N [GT-06860, 1-(6-((4-((4-((5-amino-1-(3-methylthiophene-2-carbonyl)-1H-1,2,4-triazol-3-yl)amino)phenyl)sulfonyl)piperazin-1-yl)methyl)pyridin-3-yl)dihydropyrimidine-2,4(1H,3H)-dione]
IC50 (MV-4-11; [1]): 100 to 500 nM
